Measurements published in patent EP4810040A2, “INHIBITORS OF APOL1 AND METHODS OF USING SAME” (priority 2020, dated 2022).

Target: T1, APOL1 G1 (Homo sapiens, UniProt O14791, I384M/S342G)
T1 sequence (O14791 28-398 S342G/I384M): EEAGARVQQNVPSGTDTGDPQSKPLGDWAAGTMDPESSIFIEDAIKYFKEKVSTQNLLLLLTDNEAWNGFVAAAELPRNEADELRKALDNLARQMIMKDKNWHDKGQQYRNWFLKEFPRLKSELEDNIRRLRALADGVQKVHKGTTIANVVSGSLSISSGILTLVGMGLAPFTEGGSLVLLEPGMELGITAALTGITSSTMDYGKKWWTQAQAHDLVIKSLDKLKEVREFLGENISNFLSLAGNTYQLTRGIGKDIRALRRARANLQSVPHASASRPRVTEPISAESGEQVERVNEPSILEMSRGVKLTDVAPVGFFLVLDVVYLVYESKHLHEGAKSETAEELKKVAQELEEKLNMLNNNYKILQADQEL
Experiment: MultiTox-Fluor Multiplex Cytotoxicity Assay, tet-inducible APOL1 G1 T-REx-HEK293 cells
Type: cell-based
Set-up: expressed in transfected cells; host or cells: T-REx HEK293, clone G1 DC3.25 (pAAVS1-Puro-APOL1 G1)
Settings: for IC90: HEK293, Multi-Tox Assay, APOL1 variant (G0/G1/G2) of the HEK293 cells not given, read-out: Multi-Tox Assay IC90; for Multi-Tox Assay Max Activity (%) / Emax: APOL1 variant not given, Multi-Tox Assay; for Emax: read-out: Multi-Tox Assay Max Activity (%)
Method in brief: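 T-REx-HEK293 cells carrying tet-inducible APOL1 G1 induced with 50 ng/mL tet alongside compound (top 10 µM, 10-point 3-fold, duplicate) for 24 h at 37 °C. MultiTox-Fluor dead/live protease fluorescence ratio read after 30 min; normalized to no-tet (100% viability) and tet-treated (0%) controls, then curve-fitted.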

Row | SMILES | IC90 [nM] | Multi-Tox Assay Max Activity (%) | Emax [%]
1 | C[C@H]1CC2(C[C@@H](c3cn(C)nn3)N1)OCC(C)(C)c1sc(Cl)cc12 (single isomer, unassigned) [Compound 15] | < 50 | – | –
2 | C[C@H]1CC2(C[C@@H](c3cn(C)nn3)N1)OCC(C)(C)c1sc(C(F)(F)F)cc12 (single isomer, unassigned) [Compound 16] | 50 to 500 | 100.0 | –
3 | C[C@H]1CC2(C[C@@H](c3cn(C)nn3)N1)OCCc1sc(Cl)cc12 (single isomer, unassigned) [Compound 173] | < 50 | – | 99.5
4 | C[C@H]1CC2(CC(c3cn(C)cn3)N1)OCC(O)c1cc(Cl)sc12 (single isomer, unassigned) [Compound 178] | < 50 | – | 99.7
5 | C[C@H]1C[C@@]2(C[C@@H](c3cn(C)nn3)N1)OCC(O)(C(F)F)c1cc(Cl)sc12 (single isomer, unassigned) [Compound 184] | 50 to 500 | – | 99.3
6 | C[C@@H]1CC2(C[C@H](C)N1)OCCc1sc(C(F)(F)F)cc12 (single isomer, unassigned) [Compound 196] | 50 to 500 | – | 99
7 | C[C@@H]1CC2(C[C@H](C)N1)OCCc1cc(Br)sc12 (single isomer, unassigned) [Compound 197] | 50 to 500 | – | 99
8 | C[C@@H]1CC2(C[C@H](C)N1)OCCc1cc(C3CC(F)(F)C3)sc12 (single isomer, unassigned) [Compound 198] | 50 to 500 | – | 98.7
9 | CCc1cc2c(s1)C1(C[C@@H](C)N[C@@H](C)C1)OCC2 (single isomer, unassigned) [Compound 199] | 50 to 500 | – | 99.3
10 | CC(C)c1cc2c(s1)C1(C[C@@H](C)N[C@@H](C)C1)OCC2 (single isomer, unassigned) [Compound 200] | > 500 | – | 97
11 | CC(C)Cc1cc2c(s1)C1(C[C@@H](C)N[C@@H](C)C1)OCC2 (single isomer, unassigned) [Compound 201] | > 500 | – | 95
12 | C[C@@H]1CC2(C[C@H](C)N1)OCCc1cc(C3CCCCC3)sc12 (single isomer, unassigned) [Compound 202] | > 500 | – | 94.7
13 | C[C@@H]1CC2(C[C@H](C)N1)OCCc1cc(CC(F)F)sc12 (single isomer, unassigned) [Compound 203] | < 50 | – | 99.3
14 | C[C@@H]1CC2(C[C@H](C)N1)OCCc1cc(Cl)sc12 (single isomer, unassigned) [Compound 204] | 50 to 500 | – | 99
15 | Clc1cc2c(s1)C1(C[C@@H](C3CC3)N[C@@H](C3CC3)C1)OCC2 (single isomer, unassigned) [Compound 206] | 50 to 500 | – | 99.3
16 | C[C@@H]1CC2(C[C@H](C)N1)OCCc1cc(C(F)(F)F)sc12 (single isomer, unassigned) [Compound 207] | 50 to 500 | – | 100
17 | C[C@@H]1CC2(C[C@H](C)N1)OCCc1c2sc(C(F)(F)F)c1CO (single isomer, unassigned) [Compound 208] | 50 to 500 | – | 99.5
18 | CC1CC2(CC(C3CC3(F)F)N1)OCCc1cc(Cl)sc12 (single isomer, unassigned) [Compound 212] | < 50 | – | 99

Row | SMILES | IC90 [nM] | Multi-Tox Assay Max Activity (%) | Emax [%]
19 | COC(=O)[C@@H]1C[C@]2(C[C@@H](C)N1)OCCc1cc(Cl)sc12 (stereo in doubt) [Compound 209, methyl (2'S,6'R,7S)-2-chloro-6'-methyl-spiro[4,5-dihydrothieno[2,3-c]pyran-7,4'-piperidine]-2'-carboxylate] | > 500 | – | 76.7
20 | C[C@H]1C[C@@]2(C[C@@H](c3cn(C)nn3)N1)OCCc1cc(Cl)sc12 [Compound 1, (2'S, 6'S, 7S)-2-chloro-2'-methyl-6'-(1-methyltriazol-4-yl)spiro[4,5-dihydrothieno[2,3-c]pyran-7,4'-piperidine]] | < 50 | – | 99.3
21 | C[C@H]1C[C@@]2(C[C@@H](c3cn(C)nn3)N1)OCCc1cc(C(F)(F)F)sc12 [Compound 2, (2'S,6'S,7S)-2'-methyl-6'-(1-methyltriazol-4-yl)-2-(trifluoromethyl)spiro[4,5-dihydrothieno[2,3-c]pyran-7,4'-piperidine]] | < 50 | – | 100
22 | CCc1cc2c(s1)CCO[C@@]21C[C@@H](c2cnn(CCS(C)(=O)=O)c2)N[C@@H](C)C1 [Compound 5] | 50 to 500 | 100.0 | –
23 | C[C@H]1C[C@@]2(C[C@@H](c3cn(C)nn3)N1)OCCc1sc(C(F)(F)F)cc12 [Compound 8, (2'S,4S,6'S)-2'-methyl-6'-(1-methyltriazol-4-yl)-2-(trifluoromethyl)spiro[6,7-dihydrothieno[3,2-c]pyran-4,4'-piperidine]] | < 50 | 100.0 | –
24 | CC1CC2(CC(c3cnn(CCS(C)(=O)=O)c3)N1)OCCc1sc(C(F)(F)F)cc12 (stereo not drawn) [Compound 9] | 50 to 500 | 100.0 | –
25 | CC1COC2(C[C@@H](c3cn(C)nn3)N[C@@H](C)C2)c2cc(C(F)(F)F)sc21 (stereo partly drawn) [Compound 14] | 50 to 500 | 99.3 | –
26 | C[C@H]1C[C@@]2(C[C@@H](c3cn(C)nn3)N1)OCCc1c2sc(C(F)(F)F)c1CO [Compound 17, [(2'S,6'S,7S)-2'-methyl-6'-(1-methyltriazol-4-yl)-2-(trifluoromethyl)spiro[4,5-dihydrothieno[2,3-c]pyran-7,4'-piperidine]-3-yl]methanol] | < 50 | – | 100
27 | C[C@H]1C[C@@]2(C[C@@H](c3cnn(CC(=O)N(C)C)c3)N1)OCCc1cc(Cl)sc12 [Compound 18, 2-[4-[(2S, 6S)-2-chloro-6'-methyl-spiro[4,5-dihydrothieno[2,3-c]pyran-7,4'-piperidine]-2'-yl]pyrazol-1-yl]-N,N-dimethyl-acetamide] | < 50 | – | 99.5
28 | C[C@H]1C[C@@]2(C[C@@H](c3cnn(C)c3)N1)OCCc1cc(Cl)sc12 [Compound 19, (2S)-2-chloro-2'-methyl-6'-(1-methylpyrazol-4-yl)spiro[4,5-dihydrothieno[2,3-c]pyran-7,4'-piperidine]] | < 50 | – | 99.3
29 | CC1CC2(CC(c3cccc(C#N)c3)N1)OCCc1cc(Cl)sc12 (stereo not drawn) [Compound 24] | < 50 | 100.0 | –
30 | CNC(=O)c1cccc(C2CC3(CC(C)N2)OCCc2cc(Cl)sc23)c1 (stereo not drawn) [Compound 27] | < 50 | 100.3 | –
31 | CC1CC2(CC(c3ccncc3)N1)OCCc1cc(Cl)sc12 (stereo not drawn) [Compound 30] | < 50 | – | –
32 | CC1CC2(CC(c3cc(F)cc(C#N)c3)N1)OCCc1cc(Cl)sc12 (stereo not drawn) [Compound 33] | < 50 | 98.7 | –
33 | COc1ccc(C2CC3(CC(C)N2)OCCc2cc(Cl)sc23)nc1 (stereo not drawn) [Compound 34] | < 50 | – | –
34 | CC1CC2(CC(c3ccc4[nH]ncc4c3)N1)OCCc1cc(Cl)sc12 (stereo not drawn) [Compound 35] | < 50 | 99.3 | –
35 | CC(=O)Nc1ccc(C2CC3(CC(C)N2)OCCc2cc(Cl)sc23)cn1 (stereo not drawn) [Compound 37] | < 50 | – | 99.7
36 | CC1CC2(CC(c3cnn(C)n3)N1)OCCc1cc(Cl)sc12 (stereo not drawn) [Compound 38] | < 50 | – | 100
